Test results reported in ChEMBL document CHEMBL3885881, “DrugMatrix”.

Species on record: Rattus norvegicus
Assay: DrugMatrix - Regimen: Daily Repeat
Format: toxicity, organism-based, Sprague-Dawley
Parameters: regimen Daily Repeat, gender Male, age 6-8 weeks
Conditions: in vivo, po, route oral GAVAGE, vehicle .5 % CMC; for CARBON DIOXIDE / CHLORIDE / CHOLESTEROL / CREATINE PHOSPHOKINASE / CREATININE / GLUCOSE / LACTATE DEHYDROGENASE / LIPASE / PHOSPHORUS / POTASSIUM / SODIUM / TOTAL BILIRUBIN / TOTAL PROTEIN / URIC ACID / ALANINE AMINOTRANSFERASE / ALBUMIN / ALKALINE PHOSPHATASE / ASPARTATE AMINOTRANSFERASE / BLOOD UREA NITROGEN: tissue Plasma; for ABSOLUTE BASOPHIL / ABSOLUTE EOSINOPHIL / ABSOLUTE LYMPHOCYTE / ABSOLUTE MONOCYTE / ABSOLUTE SEGMENTED NEUTROPHIL / BASOPHIL / EOSINOPHIL / ERYTHROCYTE COUNT / HEMATOCRIT / HEMOGLOBIN / LEUKOCYTE COUNT / LYMPHOCYTE / MEAN CORPUSCULAR HEMOGLOBIN / MEAN CORPUSCULAR HEMOGLOBIN CONCENTRATION / MEAN CORPUSCULAR VOLUME / MONOCYTE / NEUTROPHIL / NUCLEATED RED BLOOD CELLS / PLATELET COUNT: tissue Blood
[1] = 7 mg/kg, 120 h, dose level Low, time 5 day
[2] = 70 mg/kg, 72 h, dose level High, time 3 day
[3] = 70 mg/kg, 120 h, dose level High, time 5 day
[4] = 140 mg/kg, 72 h, dose level Low, time 3 day

Structure (SMILES): NC1=NC(=O)C(c2ccccc2)O1 (configuration not stated) [PEMOLINE]
- CARBON DIOXIDE [1]: 34.67 mmol/L
- CHLORIDE [1]: 103 MEQ/L
- CHOLESTEROL [1]: 67.67 mg/dL
- CREATINE PHOSPHOKINASE [1]: 147.33 u/L
- CREATININE [1]: 0.12 mg/dL
- GLUCOSE [1]: 151.67 mg/dL
- LACTATE DEHYDROGENASE [1]: 92.33 u/L
- LIPASE [1]: 9 u/L
- PHOSPHORUS [1]: 13.57 mg/dL
- POTASSIUM [1]: 6.78 MEQ/L
- SODIUM [1]: 146.93 MEQ/L
- TOTAL BILIRUBIN [1]: 0.17 mg/dL
- TOTAL PROTEIN [1]: 5.77 G/DL
- URIC ACID [1]: 1.33 mg/dL
- ABSOLUTE BASOPHIL [2]: 0 CELLS/uL
- ABSOLUTE EOSINOPHIL [2]: 0 CELLS/uL
- ABSOLUTE LYMPHOCYTE [2]: 14699.33 CELLS/uL
- ABSOLUTE MONOCYTE [2]: 90.67 CELLS/uL
- ABSOLUTE SEGMENTED NEUTROPHIL [2]: 1243.33 CELLS/uL
- BASOPHIL [2]: 0%
- EOSINOPHIL [2]: 0%
- ERYTHROCYTE COUNT [2]: 5.56 x10E6/uL
- HEMATOCRIT [2]: 35.23%
- HEMOGLOBIN [2]: 14.27 G/DL
- LEUKOCYTE COUNT [2]: 16.03 x10E3/uL
- LYMPHOCYTE [2]: 91.33%
- MEAN CORPUSCULAR HEMOGLOBIN [2]: 25.7 pg
- MEAN CORPUSCULAR HEMOGLOBIN CONCENTRATION [2]: 40.47 G/DL
- MEAN CORPUSCULAR VOLUME [2]: 63.43 fL
- MONOCYTE [2]: 0.67%
- NEUTROPHIL [2]: 8%
- NUCLEATED RED BLOOD CELLS [2]: 0 /100WBC
- PLATELET COUNT [2]: 1042 x10E3/uL
- ALANINE AMINOTRANSFERASE [2]: 48 u/L
- ALBUMIN [2]: 4.17 G/DL
- ALKALINE PHOSPHATASE [2]: 389 u/L
- ASPARTATE AMINOTRANSFERASE [2]: 92.67 u/L
- BLOOD UREA NITROGEN [2]: 15.33 mg/dL
- CARBON DIOXIDE [2]: 33 mmol/L
- CHLORIDE [2]: 100.67 MEQ/L
- CHOLESTEROL [2]: 58.33 mg/dL
- CREATINE PHOSPHOKINASE [2]: 270 u/L
- CREATININE [2]: 0.15 mg/dL
- GLUCOSE [2]: 154 mg/dL
- LACTATE DEHYDROGENASE [2]: 211.33 u/L
- LIPASE [2]: 8.67 u/L
- PHOSPHORUS [2]: 13.6 mg/dL
- POTASSIUM [2]: 6.81 MEQ/L
- SODIUM [2]: 144.87 MEQ/L
- TOTAL BILIRUBIN [2]: 0.1 mg/dL
- TOTAL PROTEIN [2]: 5.8 G/DL
- URIC ACID [2]: 1.6 mg/dL
- ABSOLUTE BASOPHIL [3]: 0 CELLS/uL
- ABSOLUTE EOSINOPHIL [3]: 0 CELLS/uL
- ABSOLUTE LYMPHOCYTE [3]: 16458 CELLS/uL
- ABSOLUTE MONOCYTE [3]: 255.33 CELLS/uL
- ABSOLUTE SEGMENTED NEUTROPHIL [3]: 886.67 CELLS/uL
- BASOPHIL [3]: 0%
- EOSINOPHIL [3]: 0%
- ERYTHROCYTE COUNT [3]: 5.79 x10E6/uL
- HEMATOCRIT [3]: 36.57%
- HEMOGLOBIN [3]: 14.87 G/DL
- LEUKOCYTE COUNT [3]: 17.6 x10E3/uL
- LYMPHOCYTE [3]: 93%
- MEAN CORPUSCULAR HEMOGLOBIN [3]: 25.7 pg
- MEAN CORPUSCULAR HEMOGLOBIN CONCENTRATION [3]: 40.63 G/DL
- MEAN CORPUSCULAR VOLUME [3]: 63.23 fL
- MONOCYTE [3]: 1.67%
- NEUTROPHIL [3]: 5.33%
- NUCLEATED RED BLOOD CELLS [3]: 0.33 /100WBC
- PLATELET COUNT [3]: 1251.67 x10E3/uL
- ALANINE AMINOTRANSFERASE [3]: 59.67 u/L
- ALBUMIN [3]: 4.33 G/DL
- ALKALINE PHOSPHATASE [3]: 378.67 u/L
- ASPARTATE AMINOTRANSFERASE [3]: 96.33 u/L
- BLOOD UREA NITROGEN [3]: 18.67 mg/dL
- CARBON DIOXIDE [3]: 33.33 mmol/L
- CHLORIDE [3]: 100.33 MEQ/L
- CHOLESTEROL [3]: 64 mg/dL
- CREATINE PHOSPHOKINASE [3]: 276.33 u/L
- CREATININE [3]: 0.23 mg/dL
- GLUCOSE [3]: 139 mg/dL
- LACTATE DEHYDROGENASE [3]: 306.33 u/L
- LIPASE [3]: 10.67 u/L
- PHOSPHORUS [3]: 12.97 mg/dL
- POTASSIUM [3]: 6.82 MEQ/L
- SODIUM [3]: 144.9 MEQ/L
- TOTAL BILIRUBIN [3]: 0.2 mg/dL
- TOTAL PROTEIN [3]: 6.03 G/DL
- URIC ACID [3]: 1.9 mg/dL
- BASOPHIL [4]: 0%
- EOSINOPHIL [4]: 1%
- ERYTHROCYTE COUNT [4]: 6.27 x10E6/uL
- HEMATOCRIT [4]: 38.3%
- HEMOGLOBIN [4]: 14.3 G/DL
- LEUKOCYTE COUNT [4]: 13.1 x10E3/uL
- LYMPHOCYTE [4]: 92%
- MEAN CORPUSCULAR HEMOGLOBIN [4]: 22.8 pg
- MEAN CORPUSCULAR HEMOGLOBIN CONCENTRATION [4]: 37.3 G/DL
- MEAN CORPUSCULAR VOLUME [4]: 61.1 fL
- MONOCYTE [4]: 1%
- NEUTROPHIL [4]: 6%
- PLATELET COUNT [4]: 1285 x10E3/uL
- ALANINE AMINOTRANSFERASE [4]: 34.5 u/L
- ALBUMIN [4]: 3.25 G/DL
- ALKALINE PHOSPHATASE [4]: 286.5 u/L
- ASPARTATE AMINOTRANSFERASE [4]: 93.5 u/L
- BLOOD UREA NITROGEN [4]: 15.5 mg/dL
- CHLORIDE [4]: 105.5 MEQ/L
- CHOLESTEROL [4]: 58.5 mg/dL
- CREATINE PHOSPHOKINASE [4]: 130 u/L
- CREATININE [4]: 0.75 mg/dL
- GLUCOSE [4]: 137.5 mg/dL
- PHOSPHORUS [4]: 12.65 mg/dL
- POTASSIUM [4]: 7.95 MEQ/L
- SODIUM [4]: 148 MEQ/L
- TOTAL PROTEIN [4]: 5.3 G/DL
